Results from patent US20260199371A1, “COORDINATION COMPOUND, COMPOSITIONS, AND USES THEREOF FOR TREATING CANCERS” (HUEIYUAN BIOTECH LLC, priority 2023, published 2026).

How the values were obtained:
LoVo-OXAR cells = settings: single agent: compound (II) 2000 μg/ml or oxaliplatin 50 μg/ml, 48 hours
[1] = system: ER stress markers in LoVo-parental cells; settings: 500 μg/ml, 24 hours
Protocol: Western blot analysis was conducted using primary antibodies against protein kinase RNA-like endoplasmic reticulum kinase (PERK), phosphorylated PERK (p-PERK), alpha subunit of eukaryotic translation initiation factor 2 (eIF2α), phosphorylated eIF2α (p-eIF2α), activating transcription factor 4 (ATF4), proliferating cell nuclear antigen (PCNA), glyceraldehyde 3-phosphate dehydrogenase (GAPDH), and caspase 3 (San-ta Cruz Biotechnology Inc. Santa Cruz, California, USA). GAPDH was used as an internal control for the normalization of protein expression. […] Phosphorylated eIF2α has been known to inhibit the synthesis of various proteins participating in tumorigenesis.

LoVo-parental cells = settings: single agent: compound (II) 500 μg/ml or oxaliplatin 50 μg/ml, 72 hours

## CC(=O)[O-].CC(=O)[O-].CC(=O)[O-].CC(=O)[O-].CC(=O)[O-].CC(=O)[O-].O.O.O.O.O=[N+]([O-])[O-].[Cr+3].[Fe+3].[Fe+3].[OH-].[OH-] [compound (II)]
LoVo-OXAR cells
  migration rate of LoVo-OXAR cells: significantly decreased
[1]
  caspase-3 cleavage: activates caspase-3 cleavage
  expression of ER stress markers, including PERK, p-eIF2α, and ATF4: enhancing the expression of ER stress markers
LoVo-parental cells
  invasion rate of LoVo-parental cells: significantly decreased
